± gives the expanded uncertainty stated by the source.
Experiment: xn = mol fraction of the nth substance listed
Details: for surface tension liquid-gas: Maximal bubble pressure; for mass density: 100 kPa, Liquid, Vibrating tube method

COCC[n+]1ccn(C)c1.O=S(=O)([N-]S(=O)(=O)C(F)(F)F)C(F)(F)F + CCO
Details	mass density [kg/m3]	surface tension liquid-gas [mN/m]
288.15 K, x1 = 0.1003	1055.22 ± 6.7	24.8 ± 2.5
288.15 K, x1 = 0.2	1197.64 ± 7.6	25.9 ± 2.6
288.15 K, x1 = 0.2972	1285.52 ± 8.1	27.5 ± 2.8
288.15 K, x1 = 0.401	1350.45 ± 8.5	29.3 ± 2.9
288.15 K, x1 = 0.5028	1396.83 ± 8.7	31.5 ± 3.2
288.15 K, x1 = 0.5982	1430.26 ± 8.9	33.8 ± 3.4
288.15 K, x1 = 0.6973	1457.78 ± 9.1	35.8 ± 3.6
288.15 K, x1 = 0.8111	1483.2 ± 9.2	38.2 ± 3.8
288.15 K, x1 = 0.8991	1499.41 ± 9.3	39.7 ± 4
288.15 K, x1 = 1	1515.3 ± 9.4	41.4 ± 4.2
293.15 K, x1 = 0.1003	1050.42 ± 6.6	24.4 ± 2.4
293.15 K, x1 = 0.2	1192.63 ± 7.5	25.5 ± 2.6
293.15 K, x1 = 0.2972	1280.42 ± 8.1	27.1 ± 2.7
293.15 K, x1 = 0.401	1345.31 ± 8.4	29 ± 2.9
293.15 K, x1 = 0.5028	1391.67 ± 8.7	31.3 ± 3.1
293.15 K, x1 = 0.5982	1425.1 ± 8.9	33.5 ± 3.4
293.15 K, x1 = 0.6973	1452.62 ± 9	35.5 ± 3.6
293.15 K, x1 = 0.8111	1478.06 ± 9.2	38 ± 3.8
293.15 K, x1 = 0.8991	1494.28 ± 9.3	39.5 ± 4
293.15 K, x1 = 1	1510.15 ± 9.4	41.2 ± 4.1
298.15 K, x1 = 0.1003	1045.8 ± 6.6	23.9 ± 2.4
298.15 K, x1 = 0.2	1187.81 ± 7.5	25 ± 2.5
298.15 K, x1 = 0.2972	1275.51 ± 8	26.8 ± 2.7
298.15 K, x1 = 0.401	1340.28 ± 8.4	28.7 ± 2.9
298.15 K, x1 = 0.5028	1386.61 ± 8.7	31 ± 3.1
298.15 K, x1 = 0.5982	1420.05 ± 8.8	33.2 ± 3.3
298.15 K, x1 = 0.6973	1447.54 ± 9	35.3 ± 3.5
298.15 K, x1 = 0.8111	1472.95 ± 9.1	37.7 ± 3.8
298.15 K, x1 = 0.8991	1489.16 ± 9.2	39.2 ± 3.9
298.15 K, x1 = 1	1505.03 ± 9.4	41 ± 4.1
303.15 K, x1 = 0.1003	1040.76 ± 6.6	23.5 ± 2.4
303.15 K, x1 = 0.2	1182.58 ± 7.5	24.7 ± 2.5
303.15 K, x1 = 0.2972	1270.2 ± 8	26.5 ± 2.7
303.15 K, x1 = 0.401	1335.02 ± 8.4	28.4 ± 2.8
303.15 K, x1 = 0.5028	1381.37 ± 8.7	30.7 ± 3.1
303.15 K, x1 = 0.5982	1414.81 ± 8.8	33 ± 3.3
303.15 K, x1 = 0.6973	1442.35 ± 9	35 ± 3.5
303.15 K, x1 = 0.8111	1467.8 ± 9.1	37.5 ± 3.8
303.15 K, x1 = 0.8991	1484.03 ± 9.2	39 ± 3.9
303.15 K, x1 = 1	1499.92 ± 9.3	40.7 ± 4.1
308.15 K, x1 = 0.1003	1035.9 ± 6.5	23.1 ± 2.3
308.15 K, x1 = 0.2	1177.54 ± 7.4	24.4 ± 2.4
308.15 K, x1 = 0.2972	1265.09 ± 8	26.2 ± 2.6
308.15 K, x1 = 0.401	1329.88 ± 8.3	28.1 ± 2.8
308.15 K, x1 = 0.5028	1376.24 ± 8.6	30.4 ± 3
308.15 K, x1 = 0.5982	1409.68 ± 8.8	32.7 ± 3.3
308.15 K, x1 = 0.6973	1437.23 ± 8.9	34.8 ± 3.5
308.15 K, x1 = 0.8111	1462.7 ± 9.1	37.2 ± 3.7
308.15 K, x1 = 0.8991	1478.94 ± 9.2	38.8 ± 3.9
308.15 K, x1 = 1	1494.83 ± 9.3	40.5 ± 4.1
313.15 K, x1 = 0.1003	1031.02 ± 6.5	22.6 ± 2.3
313.15 K, x1 = 0.2	1172.49 ± 7.4	24 ± 2.4
313.15 K, x1 = 0.2972	1259.99 ± 7.9	25.8 ± 2.6
313.15 K, x1 = 0.401	1324.76 ± 8.3	27.8 ± 2.8
313.15 K, x1 = 0.5028	1371.12 ± 8.6	30.1 ± 3
313.15 K, x1 = 0.5982	1404.57 ± 8.7	32.5 ± 3.3
313.15 K, x1 = 0.6973	1432.14 ± 8.9	34.5 ± 3.5
313.15 K, x1 = 0.8111	1457.62 ± 9.1	37 ± 3.7
313.15 K, x1 = 0.8991	1473.87 ± 9.2	38.6 ± 3.9
313.15 K, x1 = 1	1489.77 ± 9.3	40.3 ± 4
318.15 K, x1 = 0.1003	1026.12 ± 6.5	22.3 ± 2.2
318.15 K, x1 = 0.2	1167.43 ± 7.4	23.7 ± 2.4
318.15 K, x1 = 0.2972	1254.88 ± 7.9	25.5 ± 2.6
318.15 K, x1 = 0.401	1319.64 ± 8.3	27.5 ± 2.8
318.15 K, x1 = 0.5028	1366.01 ± 8.6	29.9 ± 3
318.15 K, x1 = 0.5982	1399.48 ± 8.7	32.2 ± 3.2
318.15 K, x1 = 0.6973	1427.07 ± 8.9	34.3 ± 3.4
318.15 K, x1 = 0.8111	1452.56 ± 9	36.8 ± 3.7
318.15 K, x1 = 0.8991	1468.81 ± 9.1	38.3 ± 3.8
318.15 K, x1 = 1	1484.72 ± 9.2	40.1 ± 4

COCC[n+]1ccn(C)c1.O=S(=O)([N-]S(=O)(=O)C(F)(F)F)C(F)(F)F + CO
Details	mass density [kg/m3]	surface tension liquid-gas [mN/m]
288.15 K, x1 = 0.1004	1121.11 ± 7.1	26.6 ± 2.7
288.15 K, x1 = 0.2003	1263.18 ± 8	28.5 ± 2.9
288.15 K, x1 = 0.2814	1330.61 ± 8.3	29.6 ± 3
288.15 K, x1 = 0.4004	1394.19 ± 8.7	31.5 ± 3.2
288.15 K, x1 = 0.4987	1429.08 ± 8.9	33.1 ± 3.3
288.15 K, x1 = 0.5949	1454.46 ± 9	34.8 ± 3.5
288.15 K, x1 = 0.704	1476.43 ± 9.2	36.9 ± 3.7
288.15 K, x1 = 0.8042	1492.31 ± 9.3	38.6 ± 3.9
288.15 K, x1 = 0.9003	1504.71 ± 9.3	40.1 ± 4
288.15 K, x1 = 1	1515.3 ± 9.4	41.4 ± 4.2
293.15 K, x1 = 0.1004	1116 ± 7.1	26.2 ± 2.6
293.15 K, x1 = 0.2003	1257.97 ± 7.9	28.1 ± 2.8
293.15 K, x1 = 0.2814	1325.38 ± 8.3	29.3 ± 2.9
293.15 K, x1 = 0.4004	1388.96 ± 8.7	31.1 ± 3.1
293.15 K, x1 = 0.4987	1423.86 ± 8.9	32.8 ± 3.3
293.15 K, x1 = 0.5949	1449.25 ± 9	34.5 ± 3.5
293.15 K, x1 = 0.704	1471.24 ± 9.1	36.6 ± 3.7
293.15 K, x1 = 0.8042	1487.14 ± 9.2	38.3 ± 3.8
293.15 K, x1 = 0.9003	1499.56 ± 9.3	39.8 ± 4
293.15 K, x1 = 1	1510.15 ± 9.4	41.2 ± 4.1
298.15 K, x1 = 0.1004	1110.88 ± 7	25.7 ± 2.6
298.15 K, x1 = 0.2003	1252.76 ± 7.9	27.7 ± 2.8
298.15 K, x1 = 0.2814	1320.14 ± 8.3	28.9 ± 2.9
298.15 K, x1 = 0.4004	1383.74 ± 8.7	30.8 ± 3.1
298.15 K, x1 = 0.4987	1418.64 ± 8.8	32.5 ± 3.3
298.15 K, x1 = 0.5949	1444.06 ± 9	34.2 ± 3.4
298.15 K, x1 = 0.704	1466.08 ± 9.1	36.4 ± 3.6
298.15 K, x1 = 0.8042	1481.99 ± 9.2	38.1 ± 3.8
298.15 K, x1 = 0.9003	1494.42 ± 9.3	39.6 ± 4
298.15 K, x1 = 1	1505.03 ± 9.4	41 ± 4.1
303.15 K, x1 = 0.1004	1105.74 ± 7	25.2 ± 2.5
303.15 K, x1 = 0.2003	1247.54 ± 7.9	27.3 ± 2.7
303.15 K, x1 = 0.2814	1314.92 ± 8.2	28.6 ± 2.9
303.15 K, x1 = 0.4004	1378.52 ± 8.6	30.5 ± 3.1
303.15 K, x1 = 0.4987	1413.44 ± 8.8	32.2 ± 3.2
303.15 K, x1 = 0.5949	1438.88 ± 8.9	34 ± 3.4
303.15 K, x1 = 0.704	1460.92 ± 9.1	36.1 ± 3.6
303.15 K, x1 = 0.8042	1476.85 ± 9.2	37.8 ± 3.8
303.15 K, x1 = 0.9003	1489.3 ± 9.2	39.4 ± 4
303.15 K, x1 = 1	1499.92 ± 9.3	40.7 ± 4.1
308.15 K, x1 = 0.1004	1100.6 ± 7	24.6 ± 2.5
308.15 K, x1 = 0.2003	1242.33 ± 7.8	26.9 ± 2.7
308.15 K, x1 = 0.2814	1309.69 ± 8.2	28.2 ± 2.8
308.15 K, x1 = 0.4004	1373.31 ± 8.6	30.1 ± 3
308.15 K, x1 = 0.4987	1408.26 ± 8.8	31.9 ± 3.2
308.15 K, x1 = 0.5949	1433.72 ± 8.9	33.7 ± 3.4
308.15 K, x1 = 0.704	1455.77 ± 9	35.8 ± 3.6
308.15 K, x1 = 0.8042	1471.73 ± 9.1	37.6 ± 3.8
308.15 K, x1 = 0.9003	1484.2 ± 9.2	39.1 ± 3.9
308.15 K, x1 = 1	1494.83 ± 9.3	40.5 ± 4.1
313.15 K, x1 = 0.1004	1095.44 ± 6.9	24.2 ± 2.4
313.15 K, x1 = 0.2003	1237.11 ± 7.8	26.5 ± 2.7
313.15 K, x1 = 0.2814	1304.47 ± 8.2	27.8 ± 2.8
313.15 K, x1 = 0.4004	1368.12 ± 8.6	29.9 ± 3
313.15 K, x1 = 0.4987	1403.08 ± 8.8	31.6 ± 3.2
313.15 K, x1 = 0.5949	1428.57 ± 8.9	33.4 ± 3.3
313.15 K, x1 = 0.704	1450.64 ± 9	35.6 ± 3.6
313.15 K, x1 = 0.8042	1466.63 ± 9.1	37.4 ± 3.8
313.15 K, x1 = 0.9003	1479.12 ± 9.2	38.9 ± 3.9
313.15 K, x1 = 1	1489.77 ± 9.3	40.3 ± 4
318.15 K, x1 = 0.1004	1090.28 ± 6.9	23.8 ± 2.4
318.15 K, x1 = 0.2003	1231.89 ± 7.8	26.1 ± 2.6
318.15 K, x1 = 0.2814	1299.25 ± 8.1	27.5 ± 2.8
318.15 K, x1 = 0.4004	1362.93 ± 8.5	29.6 ± 3
318.15 K, x1 = 0.4987	1397.92 ± 8.7	31.4 ± 3.1
318.15 K, x1 = 0.5949	1423.44 ± 8.8	33.2 ± 3.3
318.15 K, x1 = 0.704	1445.47 ± 9	35.4 ± 3.5
318.15 K, x1 = 0.8042	1461.52 ± 9.1	37.1 ± 3.7
318.15 K, x1 = 0.9003	1474.06 ± 9.2	38.7 ± 3.9
318.15 K, x1 = 1	1484.72 ± 9.2	40.1 ± 4

— the NIST ThermoML archive (doi:10.1016/j.jct.2019.06.005)
